Test results published in patent US7572600B2, “Enzymatic activities in chemokine-mediated inflammation” (Chemocentryx, Inc., priority 2004, dated 2009).
“Also recorded” adds a separate entry of the source. Where no end group is shown, it is not given here.

T1: CCR1 (Homo sapiens, UniProt P32246)
T1 sequence (P32246 1-355): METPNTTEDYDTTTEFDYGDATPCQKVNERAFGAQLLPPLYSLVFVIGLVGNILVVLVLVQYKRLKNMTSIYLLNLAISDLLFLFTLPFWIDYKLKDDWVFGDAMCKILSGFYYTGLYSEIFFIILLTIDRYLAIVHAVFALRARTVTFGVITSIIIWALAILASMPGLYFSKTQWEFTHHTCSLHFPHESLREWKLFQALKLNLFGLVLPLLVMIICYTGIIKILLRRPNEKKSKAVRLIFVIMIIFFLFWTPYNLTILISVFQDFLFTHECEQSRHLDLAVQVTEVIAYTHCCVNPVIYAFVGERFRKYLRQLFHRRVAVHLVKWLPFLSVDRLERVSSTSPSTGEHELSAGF

T2: FPRL1 (Homo sapiens, UniProt P25090)
T2 sequence (P25090 1-351): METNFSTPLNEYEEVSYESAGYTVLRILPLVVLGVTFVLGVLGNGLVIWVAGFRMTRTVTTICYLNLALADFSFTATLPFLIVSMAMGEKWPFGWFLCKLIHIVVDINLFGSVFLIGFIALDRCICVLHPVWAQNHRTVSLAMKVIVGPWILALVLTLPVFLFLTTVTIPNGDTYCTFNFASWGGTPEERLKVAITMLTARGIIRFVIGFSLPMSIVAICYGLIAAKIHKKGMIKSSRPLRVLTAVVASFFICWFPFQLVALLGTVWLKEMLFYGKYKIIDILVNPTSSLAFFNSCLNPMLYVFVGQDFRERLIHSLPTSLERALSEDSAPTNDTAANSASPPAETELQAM


How the values were obtained:
CCR1 [1] = biological target: T1, CCR1; assay: Competition binding with 125I-MIP-1α on human monocytes; parameters: endogenous in cells; host or cells: human CD14+ monocytes from buffy coats
Method: (§1) Binding assay. Competition binding studies were conducted using monocytes, L1.2-CCR1 or L1.2-FPRL1 cells. Cells were incubated for 3 hr at 4° C. with ^125I-MIP-1α (final concentration ˜0.05 nM) or ^125I-WKYMVm (final concentration ˜0.01 nM) in buffer (25 mM HEPES, 140 mM NaCl, 1 mM CaCl2, 5 mM MgCl2 and 0.2% BSA, adjusted to pH 7.1) in the presence of increasing amounts of unlabeled chemokine. Reactions were aspirated onto PEI-treated GF/B glass filters using a cell harvester (Packard). Filters were washed twice (25 mM HEPES, 500 mM NaCl, 1 mM CaCl2, 5 mM MgCl2, adjusted to pH 7.1). Scintillant (MicroScint-10; 35 μl) was added to the filters and counted in a Packard Topcount scintillation counter. Data were analyzed and plotted using Prism (GraphPad Software, San Diego, Calif.).

FPRL1 = biological target: T2, FPRL1; assay: Competition binding with 125I-WKYMVm on human monocytes; parameters: endogenous in cells; host or cells: human CD14+ monocytes from buffy coats
Method: Binding assay. Competition binding studies were conducted using monocytes, L1.2-CCR1 or L1.2-FPRL1 cells. […] Reactions were aspirated onto PEI-treated GF/B glass filters using a cell harvester (Packard). Filters were washed twice (25 mM HEPES, 500 mM NaCl, 1 mM CaCl2, 5 mM MgCl2, adjusted to pH 7.1). Scintillant (MicroScint-10; 35 μl) was added to the filters and counted in a Packard Topcount scintillation counter. Data were analyzed and plotted using Prism (GraphPad Software, San Diego, Calif.).

human neutrophils = assay: Calcium mobilization in freshly isolated human neutrophils; type: cell-based; details: undigested chemokine or peptide (100 nM)
Method: (§2) Calcium Mobilization Assay. Cells were loaded for 1 hour with 2 μM indo-1/AM dye (Molecular Probes, Eugene, Oreg.) in culture medium, then washed with 10 ml PBS and resuspended at 10^6/ml in HBSS containing 1% FBS. Cytosolic calcium responses were determined using a Photon Technology International (Lawrenceville, N.J.) fluorimeter, with excitation at 350 nm and dual emission at 400 and 490 nm. Alternatively, cells were loaded with 5 μg/ml Fluo-4 AM dye (Molecular Probes, Eugene, Oreg.), then washed and analyzed on a Fluorometric Imaging Plate Reader 384 (FLIPR^384 Molecular Devices, Sunnyvale, Calif.), with 505 nm excitation and 530 nm emission.
(§3) Receptor signaling assay. For individual measurements, cells were loaded for 45 min at room temperature with 2 μM indo-1/AM (Invitrogen, Carlsbad Calif.) in culture medium, then washed with 10 ml PBS and resuspended at 10^6 cells/ml in HBSS containing 0.1% BSA. Cytosolic calcium levels were determined using a Photon Technology International fluorimeter (excitation at 350 nm, ratio of dual emission at 400 and 490 nm). For measuring calcium dose responses, cells were analyzed with a Fluorometric Imaging Plate Reader 384 (FLIPR^384) (Molecular Devices, Sunnyvale, Calif.). Cells were loaded for 1 hr at 37° C. with 5 μM fluo-4 in HBSS with 0.1% BSA, then washed, transferred to black-wall 96-well plates, and subsequently excited at 505 nm with emission recorded at 530 nm with a standard protocol provided by the manufacture. Cells were stimulated with agonists 20 s after the monitoring of fluorescence began. Data were analyzed and plotted in arbitrary units of fluorescence using Prism. To ensure that responses were specific to FPRL1, we utilized a selective small-molecule antagonist of human FPRL1, generated by ChemoCentryx, which was optimized from a high throughput compound library screening approach.

CCR1 [2] = biological target: T1, CCR1; assay: Competition binding with 125I-MIP-1α on L1.2-CCR1 cells; parameters: endogenous in cells; host or cells: human CD14+ monocytes from buffy coats
Method: as §1

[3] = system: monocyte-derived dendritic cells; assay: Calcium mobilization in monocyte-derived dendritic cells; type: cell-based, human
Method: Human monocytes were obtained from buffy coats purchased from the Stanford Blood Bank (Palo Alto, Calif.) by sedimentation on Ficoll-Paque (Amersham, Piscataway, N.J.) and selection with anti-CD14 magnetic beads (Miltenyi, Auburn, Calif.) according to the manufacturers' instructions. For generation of dendritic cells, monocytes were cultured for 6 days in RPMI-1640 medium containing 10% FBS (HyClone, Logan, Utah). On days 0, 2 and 4, GM-CSF and IL-4 (both purchased from R&D Systems, Minneapolis, Minn.) were added to the cultures at 1000 WHO unit/ml each. The cells were confirmed to be CD14^−CD1a^+ immature DC by FACS staining on day 6.
as §2
Immature and mature DC preparation. Immature DCs were derived by culturing CD14+ monocytes in T-175 cultured flasks at a density of 10^6 cells/ml in RPMI supplemented with 10% FBS. Recombinant human cytokines GM-CSF and IL-4 (final concentration 1000 and 500 U/ml, respectively) were added on day 0, 2, 4 and 6. Cells were harvested on day 6 as immature DCs and characterized for surface marker expression by flow cytometry. DC maturation was carried out by culturing day-6 immature DCs in RPMI-10% FBS supplemented with GM-CSF, IL-4 and 50 μg/ml polyIC (Sigma, St. Louis Mo.). After two more days of culture, cells were harvested as mature DCs and characterized by surface marker expression by flow cytometry.
as §3

human monocytes = assay: Calcium mobilization in freshly isolated human monocytes; type: cell-based; details: for calcium mobilization: undigested chemokine or peptide, 100 nM (CCL23β up to 250 nM)
Method: as §2, §3

Molecule | inhibition of 125I-MIP-1α binding (CCR1 [1]) | IC50 (FPRL1) | calcium mobilization (human neutrophils) | inhibition of 125I-MIP-1α binding (CCR1 [2]) | calcium response ([3]; immature DC, undigested) | calcium response ([3]; mature DC) | calcium mobilization (human monocytes) | magnitude of calcium signal versus CCL15 Δ24/leukotactin (human monocytes; both at 100 nM)
MLWRRKIGPQMTLSHAAG [SHAAGtide] | did not inhibit | 10 nM | equipotent to CCL23β Δ24 | unable to inhibit binding; also recorded: does not bind CCR1 | much smaller calcium response | small amount of signaling activity | equipotent to CCL23β Δ24 | 
CCL23β Δ24: truncated form of CCL23β lacking the 24-residue N-terminal domain, beginning with the SHAAGtide insertion (protein, listed as Homo sapiens) MLWRRKIGPQMTLSHAAGFHATSADCCISYTPRSIPCSLLESYFETNSECSKPGVIFLTKKGRRFCANPSDKQVQVCMRMLKLDTRIKTRKN | moderate competitors |  | very robust calcium response |  | strong calcium response | diminished | particularly strong and sustained calcium profile | at least two fold higher
